Measured values taken from PubChem BioAssay (NCI).
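These data come from cells grown in 96-well plates and exposed to compound for 48 hours at five concentrations. At the GI50, growth is halved. TGI denotes the concentration required for complete inhibition of growth.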

How the values were obtained:
Assay in all cases: DTP human tumour cell line panel, 48 h
RPMI-8226 leukemia = tested on: RPMI-8226 leukemia
SK-MEL-2 melanoma = tested on: SK-MEL-2 melanoma
SF-268 CNS = tested on: SF-268 CNS
LOX IMVI melanoma = tested on: LOX IMVI melanoma
A549 NSCLC = tested on: A549 NSCLC
SF-295 CNS = tested on: SF-295 CNS
OVCAR-5 ovarian = tested on: OVCAR-5 ovarian
MCF7 breast = tested on: MCF7 breast
NCI/ADR-RES ovarian = tested on: NCI/ADR-RES ovarian
MDA-N = tested on: MDA-N

| SMILES | TGI (RPMI-8226 leukemia) [µM] | TGI (SK-MEL-2 melanoma) [µM] | TGI (SF-268 CNS) [µM] | TGI (LOX IMVI melanoma) [µM] | TGI (A549 NSCLC) [µM] | TGI (SF-295 CNS) [µM] | TGI (OVCAR-5 ovarian) [µM] | GI50 (RPMI-8226 leukemia) [µM] | GI50 (SK-MEL-2 melanoma) [µM] | GI50 (SF-268 CNS) [µM] | GI50 (MCF7 breast) [µM] | TGI (MCF7 breast) [µM] | GI50 (LOX IMVI melanoma) [µM] | GI50 (A549 NSCLC) [µM] | GI50 (OVCAR-5 ovarian) [µM] | GI50 (NCI/ADR-RES ovarian) [µM] | TGI (NCI/ADR-RES ovarian) [µM] | TGI (MDA-N) [µM] | GI50 (MDA-N) [µM] | GI50 (SF-295 CNS) [µM] |
| --- | --- | --- | --- | --- | --- | --- | --- | --- | --- | --- | --- | --- | --- | --- | --- | --- | --- | --- | --- | --- |
| COc1cc2ccc1-c1cc(ccc1O)CC1c3cc4c(cc3CCN1C)Oc1c(OC)cc3c(c1O4)C(C2)N(C)CC3 (stereo not given) | 4.75 | 3.38 | 3.52 | 3.75 | 3.41 | 3.33 | 8.86 | – | – | – | – | – | – | – | – | – | – | – | – | – |
| CC[C@H](Nc1nc(N)nc(N)c1Cl)c1nc2cccc(NCc3ccc(C(=O)NO)cc3)c2c(=O)n1-c1ccccc1 | 5.92 | 5.27 | 3.69 | 3.17 | 5.73 | – | 3.36 | 2.15 | 2.02 | 1.66 | 2.25 | 7.2 | 1.73 | 2.33 | 1.61 | 12.4 | > 100 | – | – | – |
| Cc1ncc(CO)c(CN)c1O | > 100 | > 100 | > 100 | > 100 | > 100 | > 100 | > 100 | – | – | – | – | > 100 | – | – | – | – | > 100 | > 100 | – | – |
| COc1cnc2c(c1)C(=O)c1c-2n(CCCN2CCNCC2)c(=O)c2cc(Cl)ccc12 | – | 4.65 | 2.63 | – | – | – | 3.31 | – | 2.11 | 1.07 | – | – | – | – | 1.74 | – | – | – | – | – |
| CC(C)CNc1nc(N)[nH]c(=O)c1NC=O | > 100 | > 100 | > 100 | > 100 | > 100 | > 100 | > 100 | – | – | – | – | > 100 | – | – | – | – | > 100 | > 100 | – | – |
| Cc1c2ccnc(-c3ccccc3)c2cc2c1[nH]c1ccccc12 | 8.25 | 7.3 | 32.9 | 17.6 | 10.3 | 5.45 | 13.8 | – | – | – | – | 8.59 | – | – | – | – | 6.36 | – | – | – |
| Cn1cnc([N+](=O)[O-])c1SCC(=O)O | > 100 | > 100 | > 100 | > 100 | > 100 | > 100 | > 100 | – | – | – | – | > 100 | – | – | – | – | > 100 | > 100 | – | – |
| O=C(c1cc(Br)ccc1O)c1cc(Br)ccc1O | 30.4 | 30.1 | 42.4 | 36.8 | 32 | 33.7 | 33.3 | – | – | – | – | 31.3 | – | – | – | – | 44.7 | 29.5 | – | – |
| NCS(=O)(=O)O | > 100 | > 100 | > 100 | > 100 | > 100 | > 100 | > 100 | – | – | – | – | > 100 | – | – | – | – | > 100 | > 100 | – | – |
| C[n+]1cccc(/C=C/c2ccc3cccc(O)c3n2)c1 | > 100 | > 100 | > 100 | > 100 | > 100 | > 100 | > 100 | – | – | – | – | > 100 | – | – | – | – | > 100 | > 100 | – | – |
| C[C@H]1CCC/C=C/[C@@H]2C[C@H](O)C[C@H]2[C@H](O)[C@@H](S(=O)CCN)CC(=O)O1 (stereo not given in full) | 2.71 | – | > 100 | 0.101 | > 100 | > 100 | – | 0.294 | 0.111 | – | 0.0316 | – | 0.031 | 0.0402 | 0.0479 | 0.0196 | 0.137 | 5.5 | 0.0505 | 0.117 |
| COc1cc2c(cc1OC)C(Cl)C(c1ccc(Cl)cc1)=C2Cl (stereo not given) | 45.6 | 36.3 | – | 25.5 | – | 30 | – | – | – | – | – | – | – | – | – | – | – | – | – | – |
| Cc1cc(=O)[nH]c(NN2C(Cl)C(=O)C2c2cccc([N+](=O)[O-])c2)n1 (stereo not given) | 40.3 | 36.2 | > 100 | 26.9 | > 100 | – | > 100 | – | – | – | – | – | – | – | – | – | – | – | – | – |
| c1ccc2c[n+](CCCCCCCCCC[n+]3ccc4ccccc4c3)ccc2c1 | > 10 | > 10 | > 10 | > 10 | > 10 | > 10 | > 10 | – | – | – | – | > 10 | – | – | – | – | > 10 | > 10 | – | – |
| CC(C)(C)C1CCC2(CC1)CCN(CCCN1CCOCC1)CC2 | 63.8 | 53.2 | > 100 | > 52.3 | > 88.8 | > 61.7 | > 100 | – | – | – | – | > 100 | – | – | – | – | > 100 | 89.9 | – | – |
| CN(C)CCNC(=O)c1cccc2nc3c4ccccc4c4ccccc4c3nc12 | 5.3 | 8.24 | 0.632 | 3.13 | 12.2 | 10.1 | 14.2 | – | – | – | – | 3.47 | – | – | – | – | – | 3.06 | – | – |
| O=C(O)c1ccccn1 | > 100 | > 100 | > 100 | – | > 100 | > 100 | > 100 | – | – | – | – | > 100 | – | – | – | – | > 100 | > 100 | – | – |
| CN(C)c1ccc(C2CC(=O)C(C#N)=C(c3ccccc3)NN2C)cc1 (stereo not given) | > 100 | 57.2 | > 100 | > 100 | > 100 | > 100 | > 100 | – | – | – | – | – | – | – | – | – | – | – | – | – |
| N=C(N)c1ccc(-c2ccc(-c3ccc(Cl)cn3)s2)cc1 | – | – | 39.3 | – | – | – | 3.04 | – | – | 9.67 | – | – | – | – | 1.58 | – | – | – | – | – |
| CN(C)c1ccc2nc3c(C(=O)O)cc(=O)c(O)c-3oc2c1 | 95.2 | 40.2 | > 100 | > 100 | > 100 | > 100 | > 100 | – | – | – | – | 56.5 | – | – | – | – | 85.7 | 55.5 | – | – |
| CN(C)[C@@H]1C(=O)C(C(=O)NCNCCCC(=O)O)=C(O)[C@@]2(O)C(=O)C3=C(O)c4c(O)cccc4[C@@](C)(O)[C@H]3C[C@@H]12 | > 100 | > 100 | > 100 | > 100 | > 100 | > 100 | > 100 | – | – | – | – | – | – | – | – | – | – | – | – | – |
| O=C1c2ccccc2C(=O)c2c(NCCNC(=O)C3CCCN3)ccc(NCCNC(=O)C3CCCN3)c21 (stereo not given) | 58.8 | > 100 | > 100 | 1.58 | > 100 | > 100 | > 100 | – | – | – | – | > 100 | – | – | – | – | > 100 | > 100 | – | – |
